Literature values in patent US5985868A, “Methods and compositions for treating androgen-dependant diseases using optically pure R-(-) casodex” (Sepracor Inc., priority 1998, dated 1999).

Columns and labels:
[1] = in vivo
[2] = test system: progesterone receptors; details: at 5 nm
[3] = test system: glucocorticoid receptors; details: at 5 nm
[4] = test system: prostatic acid phosphatase; details: human volunteers, 10-50 mg p.o. per day
[5] = racemic casodex at 30 or 50 mg
[6] = test system: serum testosterone, estradiol and LH; details: observed at all doses (10-50 mg p.o. per day)
[7] = estimated from oral studies
[8] = test system: glucocorticoid activity
[9] = test system: peripheral androgen receptors
[10] = test system: beta-adrenergic; details: L-form versus D-enantiomer
[11] = test system: androgen; details: in vivo
[12] = control of morning sickness during pregnancy

Compound: O=C1CCC(N2C(=O)c3ccccc3C2=O)C(=O)N1 [L-enantiomer of thalidomide, thalidomide]
- teratogenicity [1]: potent teratogen

Compound: C[C@]1(O)CC[C@H]2[C@@H]3CCC4=CC(=O)CCC4=C3C=C[C@@]21C [[^3 H]-R1881, methyltrienolone]
- binding to progesterone receptors [2]: approximately 5%
- binding to glucocorticoid receptors [3]: approximately 5%

Compound: CC(O)(CS(=O)(=O)c1ccc(F)cc1)C(=O)Nc1ccc(C#N)c(C(F)(F)F)c1 (racemic) [racemic casodex, 4'-cyano-3-[(4-fluorophenyl)sulfonyl]-2-hydroxy-2-methyl-3'-(trifluoromethyl)propionanilide]
- reduction in prostatic acid phosphatase levels [4]: 50 to 60%
- patients reporting gynecomastia and breast tenderness [5]: Over half the patients
- patients reporting hot flushes [5]: about 20%
- patients reporting nausea and vomiting, bone pain, confusion, constipation, headache, diarrhea, dyspepsia, fatigue, dizziness or rash [5]: less than 10%
- elevations of serum testosterone, estradiol and LH [6]: Significant but mild elevations
- average half life [7]: about 8 days
- glucocorticoid activity [8]: no progestational or glucocorticoid activity
- agonist component at peripheral androgen receptors [9]: little if any agonist component

Compound: CC(C)NCC(O)COc1cccc2ccccc12 [L-form of propranolol, propranolol]
- potency relative to the D-enantiomer [10]: 100 times

Compound: C[C@](O)(CS(=O)(=O)c1ccc(F)cc1)C(=O)Nc1ccc(C#N)c(C(F)(F)F)c1 [R-(-)-casodex, N-[4-cyano-3-(trifluoromethyl)phenyl]-3-[(4-fluorophenyl)sulfonyl]-2-hydroxy-2-methylpropanamide]
- ED50 in inhibiting androgen in rats [11]: 0.5 mg/kg

Compound: O=C1CCC(N2C(=O)c3ccccc3C2=O)C(=O)N1 [D-enantiomer of thalidomide, thalidomide]
- sedative effect [12]: safe and effective sedative
